Laboratory results published in publication PMC5155291 (Scientific Reports, 2016).
Like-named read-outs stand apart in the source and are kept apart here.

Key:
[1] = biological target: T1, H547A-hDAT (Homo sapiens, UniProt Q01959, H547A); test: Kinetic analysis of [3H]DA uptake in the presence or absence of PMA or BIM; type: cell-based; conditions: 1 μM PMA, 30 min preincubation, 37 °C
T1 construct: Synthetic cDNA encoding hDAT subcloned into pcDNA3.1+; expressed in transfected cells; host or cells: PC12 cells (ATCC CRL-1721), transient transfection with pcDNA3.1+ plasmid
T1 sequence (Q01959 whole entry H547A): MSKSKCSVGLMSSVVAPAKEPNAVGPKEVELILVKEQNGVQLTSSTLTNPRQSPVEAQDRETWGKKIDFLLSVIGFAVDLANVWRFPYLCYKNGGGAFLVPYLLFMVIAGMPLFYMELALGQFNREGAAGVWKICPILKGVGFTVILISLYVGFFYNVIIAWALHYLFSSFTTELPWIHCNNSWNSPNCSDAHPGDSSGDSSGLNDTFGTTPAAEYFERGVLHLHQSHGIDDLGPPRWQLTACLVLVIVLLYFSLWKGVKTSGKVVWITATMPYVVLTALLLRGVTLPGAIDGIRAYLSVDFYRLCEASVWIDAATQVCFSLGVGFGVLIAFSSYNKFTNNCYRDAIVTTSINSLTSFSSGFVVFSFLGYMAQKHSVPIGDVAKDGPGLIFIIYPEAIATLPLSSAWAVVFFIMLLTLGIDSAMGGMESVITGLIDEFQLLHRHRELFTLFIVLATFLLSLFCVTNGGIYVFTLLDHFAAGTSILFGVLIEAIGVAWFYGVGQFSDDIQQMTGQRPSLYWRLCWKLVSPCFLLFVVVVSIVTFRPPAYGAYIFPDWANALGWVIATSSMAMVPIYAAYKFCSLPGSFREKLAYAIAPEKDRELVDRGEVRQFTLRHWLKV
Protocol: (§1) To determine whether H547A-induced increase in Vmax was mediated by a phosphorylation-dependent mechanism, kinetic analysis of [^3H]DA uptake was measured in the presence or absence of PKC activator PMA (Tocris, Bristol, UK) or PKC inhibitor BIM (Sigma-Aldrich, St. Louis, MO). The concentrations were chosen based on previous reports. In brief, intact PC12 cells transfected with WT or H547A-hDAT were preincubated with or without PMA or BIM (1 μM, final concentration) for 30 min at 37 °C or room temperature and then incubated with six concentrations of mixed [^3H]DA for 8 min as described above. Nonspecific uptake of each concentration of [^3H]DA (in the presence of 10 μM nomifensine) was subtracted from total uptake to calculate specific DAT-mediated uptake.

[2] = biological target: T2, WT hDAT (Homo sapiens, UniProt Q01959); test: as above; type: cell-based; conditions: 30 min preincubation
T2 construct: Synthetic cDNA encoding hDAT subcloned into pcDNA3.1+; expressed in transfected cells; host or cells: PC12 cells (ATCC CRL-1721), transient transfection with pcDNA3.1+ plasmid, Lipofectamine 2000
T2 sequence (Q01959 whole entry): as the sequence (Q01959 whole entry H547A) above, with A547H counted along it
Protocol: as §1

[3] = biological target: T1, H547A-hDAT; test: Competitive inhibition / modulation of [3H]WIN 35,428 binding in intact transfected PC12 cells; conditions: Zn2+ 100 μM
[4] = biological target: T3, H547D-hDAT (Homo sapiens, UniProt Q01959, H547D); test: Inhibition of [3H]DA uptake in intact transfected PC12 cells; type: cell-based
T3 construct: Synthetic cDNA encoding hDAT subcloned into pcDNA3.1+; expressed in transfected cells; host or cells: PC12 cells (ATCC CRL-1721), transient transfection with pcDNA3.1+ plasmid
T3 sequence (Q01959 whole entry H547D): as the sequence (Q01959 whole entry H547A) above, with A547D counted along it
Protocol: (§2) Cells were lysed in 500 μl of 1% SDS for an hour and radioactivity was measured using a liquid scintillation counter (model Tri-Carb 2900TR; PerkinElmer Life and Analytical Sciences, Waltham, MA). Vmax and Km were determined using Prism 5.0 (GraphPad Software Inc., San Diego, CA).
(§3) Results are presented as mean ± SEM, and n represents the number of independent experiments for each experiment group. Kinetic parameters (Vmax, Km, Bmax, and Kd) were determined from saturation curves by nonlinear regression analysis using a one-site model with variable slope. […] For experiments involving comparisons between unpaired samples, unpaired Student’s t test was used to assess any difference in the kinetic parameters (Vmax, Km, Bmax, Kd or IC50) between WT and mutant; log-transformed values of IC50, Km or Kd were used for the statistical comparisons. Significant differences between samples were analyzed with separate ANOVAs followed by post-hoc tests, as indicated in the results Section of each experiment. All statistical analyses were performed using IBM SPSS Statistics version 20, and differences were considered significant at p < 0.05.

[5] = biological target: T2, WT hDAT; test: as above; type: cell-based
Protocol: as §2, §3

[6] = biological target: T2, WT hDAT; test: Competitive inhibition / modulation of [3H]WIN 35,428 binding in intact transfected PC12 cells
[7] = biological target: T1, H547A-hDAT; type: cell-based
Protocol: as §2, §3

CCCCCCCCCCCCCC(=O)O[C@@H]1[C@@H](C)[C@@]2(O)[C@@H](C=C(CO)C[C@]3(O)C(=O)C(C)=C[C@@H]23)[C@@H]2C(C)(C)[C@]12OC(C)=O [PMA, phorbol 12-myristate 13-acetate]
decrease in the Vmax of [3H]DA uptake compared to control [1]: 60% | decrease in the Vmax of [3H]DA uptake compared to control ([2]; 1 μM PMA, 37 °C): 40%

[Cl-].[Cl-].[Zn+2] [Zn^2+, ZnCl2]
increase in [3H]WIN 35,428 binding [3]: 27% | decrease in [3H]DA uptake compared to control ([4]; Zn2+ 10 μM): 53% | decrease in [3H]DA uptake compared to control ([4]; Zn2+ 100 μM): 60% | decrease in [3H]DA uptake compared to control ([5]; Zn2+ 10 μM): 25% | decrease in [3H]DA uptake compared to control ([5]; Zn2+ 100 μM): 37% | increase in [3H]WIN 35,428 binding ([6]; Zn2+ 10 μM): 80% | increase in [3H]WIN 35,428 binding ([6]; Zn2+ 100 μM): 82% | decrease in [3H]DA uptake compared to control ([7]; Zn2+ 10 μM, not significant): 10% | decrease in [3H]DA uptake compared to control ([7]; Zn2+ 100 μM): 38%

CN(C)CCCn1cc(C2=C(c3c[nH]c4ccccc34)C(=O)NC2=O)c2ccccc21 [BIM, bisindolylmaleimide-I]
increase in the Vmax of [3H]DA uptake relative to control ([2]; 1 μM BIM): 98%
